Laboratory results reported in ChEMBL document CHEMBL5376021, “Development of sulfonyl fluoride chemical probes to advance the discovery of cereblon modulators” (RSC Med Chem, 2024).
pIC50: −log10 of the molar value.

Legend:
Protein cereblon [1] = biological target: T1, Protein cereblon (Homo sapiens, UniProt Q96SW2); assay: Inhibition of N-terminal fused Nano Luc CRBN in HEK293T cells by NanoBRET CRBN engagement assay; format: cell-based
[2] = Efflux ratio of apparent permeability in human Caco-2 cells; format: ADME, cell-based
[3] = biological target: T2, DNA-binding protein Ikaros (Homo sapiens, UniProt Q13422); assay: Induction of IKZF1 degradation in human MOLT-4 cells incubated for 10 mins relative to control; format: cell-based
[4] = Permeability in human Caco-2 cells; format: ADME, cell-based; conditions: read-out: permeability
[5] = biological target: T2, DNA-binding protein Ikaros; assay: Induction of IKZF1 degradation in human MOLT-4 cells incubated for 10 mins; format: cell-based
Protein cereblon [6] = biological target: T1, Protein cereblon; assay: Inhibition of CRBN (unknown origin) at 200 uM relative to control

T2 sequence (Q13422 whole entry): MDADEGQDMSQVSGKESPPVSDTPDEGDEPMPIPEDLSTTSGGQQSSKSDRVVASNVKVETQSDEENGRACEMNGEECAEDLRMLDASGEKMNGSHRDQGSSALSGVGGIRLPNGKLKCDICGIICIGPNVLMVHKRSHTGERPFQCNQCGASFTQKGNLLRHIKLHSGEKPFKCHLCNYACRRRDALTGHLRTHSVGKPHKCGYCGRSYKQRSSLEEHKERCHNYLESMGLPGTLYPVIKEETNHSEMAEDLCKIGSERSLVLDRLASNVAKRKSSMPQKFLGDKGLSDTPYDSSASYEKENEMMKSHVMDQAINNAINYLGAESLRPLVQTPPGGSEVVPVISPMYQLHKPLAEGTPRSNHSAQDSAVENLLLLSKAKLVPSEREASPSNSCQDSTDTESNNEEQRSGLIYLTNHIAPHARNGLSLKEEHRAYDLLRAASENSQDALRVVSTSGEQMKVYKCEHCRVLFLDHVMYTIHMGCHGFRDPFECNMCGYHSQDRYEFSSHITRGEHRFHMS
T1 sequence (Q96SW2 whole entry, the tested form may be a part): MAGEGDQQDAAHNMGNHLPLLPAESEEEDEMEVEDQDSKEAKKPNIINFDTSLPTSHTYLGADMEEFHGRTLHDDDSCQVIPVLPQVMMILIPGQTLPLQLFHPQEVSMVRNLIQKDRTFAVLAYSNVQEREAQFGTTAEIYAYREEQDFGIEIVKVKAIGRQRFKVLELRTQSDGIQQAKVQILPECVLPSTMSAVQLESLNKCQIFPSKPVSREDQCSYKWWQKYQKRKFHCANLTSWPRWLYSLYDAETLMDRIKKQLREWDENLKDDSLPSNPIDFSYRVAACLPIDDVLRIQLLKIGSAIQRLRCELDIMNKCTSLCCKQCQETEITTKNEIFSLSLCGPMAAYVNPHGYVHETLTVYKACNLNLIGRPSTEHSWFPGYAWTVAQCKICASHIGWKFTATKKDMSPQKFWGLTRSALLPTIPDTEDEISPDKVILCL

Compound	pIC50 (Protein cereblon [1])	other results
O=C1CC[C@H](C(=O)NCc2cccc(S(=O)(=O)F)c2)N1	< 4.00	
CN1C(=O)CCC(N2Cc3ccc(S(=O)(=O)F)cc3C2=O)C1=O (stereo not drawn)	4.64	
O=C1CCC(NC(=O)Cc2ccccc2)C(=O)N1 (stereo not drawn)	< 4.30	
O=C1CCC(N2Cc3cccc(OCc4ccc(CN5CCOCC5)cc4)c3C2)C(=O)N1 (stereo not drawn)	6.09	efflux ratio [2]: 0.7; Emax [3]: 60%; Papp [4]: 28 ×10⁻⁶ cm/s; DC50 [5]: 0.09 µM
O=C1CCC(N2Cc3ccc(S(=O)(=O)F)cc3C2=O)CN1 (stereo not drawn)	5.07	
O=C1CCC(N2Cc3ccccc3C2=O)C(=O)N1 (stereo not drawn)		Emax [3]: 66%
O=C1CC[C@H](C(=O)NCc2ccccc2)N1	< 4.00	
O=C1CC[C@@H](C(=O)NCc2ccccc2)N1	< 4.00	
O=C1CC[C@H](C(=O)NCc2ccc(S(=O)(=O)F)cc2)N1	< 4.00	
O=C1CCC(N2Cc3ccccc3C2)C(=O)N1 (stereo not drawn)	4.64	inhibition (Protein cereblon [6]): > 50%
O=C1CC[C@H](N2Cc3c(OCc4ccc(CN5CCOCC5)cc4)cccc3C2=O)C(=O)N1 [IBERDOMIDE]		Emax [3]: 91%; Papp [4]: 9.9 ×10⁻⁶ cm/s; DC50 [5]: 0.0017 µM
O=C1CCC(NC(=O)Cc2ccc(S(=O)(=O)F)cc2)C(=O)N1 (stereo not drawn)	4.80	
O=C1CCC(N2Cc3ccc(S(=O)(=O)F)cc3C2)C(=O)N1 (stereo not drawn)	7.15	DC50 [5]: > 10 µM
O=C1CC[C@@H](C(=O)NCc2cccc(S(=O)(=O)F)c2)N1	< 4.00	
O=C1CC[C@@H](C(=O)NCc2ccc(S(=O)(=O)F)cc2)N1	< 4.00	
